Assays:
[1] = target: Mitogen-activated protein kinase 10 (Homo sapiens, UniProt P53779); assay: Inhibition of human JNK3 incubated for 40 mins in presence of ATP and [gamma33P-ATP] by scintillation counting method; settings: read-out: IC50
[2] = target: T1, Mitogen-activated protein kinase 8 (Homo sapiens, UniProt P45983); assay: Inhibition of human JNK1 incubated for 40 mins in presence of ATP and [gamma33P-ATP] by scintillation counting method
[3] = target: T2, Mitogen-activated protein kinase 9 (Homo sapiens, UniProt P45984); assay: Inhibition of human JNK2 incubated for 40 mins in presence of ATP and [gamma33P-ATP] by scintillation counting method
T2 sequence (P45984 whole entry): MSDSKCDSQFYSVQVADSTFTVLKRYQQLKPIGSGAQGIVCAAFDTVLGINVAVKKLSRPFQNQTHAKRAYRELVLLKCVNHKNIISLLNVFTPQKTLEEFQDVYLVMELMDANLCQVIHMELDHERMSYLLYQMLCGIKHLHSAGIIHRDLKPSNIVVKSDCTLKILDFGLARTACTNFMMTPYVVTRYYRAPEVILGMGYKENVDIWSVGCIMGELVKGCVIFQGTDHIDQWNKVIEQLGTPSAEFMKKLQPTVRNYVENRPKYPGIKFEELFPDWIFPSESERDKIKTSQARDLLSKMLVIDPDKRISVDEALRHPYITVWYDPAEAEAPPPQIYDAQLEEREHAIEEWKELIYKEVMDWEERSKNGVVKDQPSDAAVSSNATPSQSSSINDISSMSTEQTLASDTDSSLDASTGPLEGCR

[4] = target: T1, Mitogen-activated protein kinase 8; assay: Inhibition of JNK1 (unknown origin) by ATP-competitive assay
[5] = target: T2, Mitogen-activated protein kinase 9; assay: Inhibition of JNK2 (unknown origin) by ATP-competitive assay
[6] = target: T1, Mitogen-activated protein kinase 8; assay: Inhibition of JNK1 (unknown origin) assessed as incorporation of 33P-ATP
[7] = Toxicity in APP/PS1 mouse assessed as weight change at 60 mg/kg, po treated for 2 months; type: organism-based; settings: in vivo, 1460 h
Mus musculus [8] = assay: Anti-alzheimer activity against homozygous 3 x Tg mouse model assessed as spontaneous alteration at 60 mg/kg, po administered daily for 2.2 months and measured after 57 days of treatment by Y-maze test (reference value: 45.05 +/- 3.61%); type: functional; settings: 1606 h
Mus musculus [9] = assay: Anti-alzheimer activity against APP/PS1 dE9 double transgenic mouse model assessed as spontaneous alteration at 10 mg/kg, po administered 3 times/week for 1 month and measured after 27 days of treatment by Y-maze test (reference value: 45.51 +/- 2.92%); type: functional; settings: time 1 months, 730 h
Mus musculus [10] = assay: Anti-alzheimer activity against APP/PS1 dE9 double transgenic mouse model assessed as time spent in platform quadrant at 10 mg/kg, po administered 3 times/week for 1 month and measured after 40 to 45 days of treatment by Morris water maze test (reference value: 15.94 +/- 2.08 sec); type: functional; settings: time 1 months, 730 h
Mus musculus [11] = assay: Anti-alzheimer activity against homozygous 3 x Tg mouse model assessed as escape latency time at 30 mg/kg, po administered daily for 2.2 months and measured after 60 days of treatment by Passive avoidance test (reference value: 40.6 +/- 6 sec); type: functional; settings: 1606 h
[12] = Apparent permeability across apical to basolateral side in human Caco-2 cells at 10 uM incubated for 1 hr by LC-MS/MS analysis; type: ADME, cell-based
[13] = Toxicity in APP/PS1 mouse assessed as abnormal symptoms at 30 mg/kg, po treated for 2 months; type: organism-based; settings: in vivo, 1460 h
[14] = Plasma concentration in Sprague-Dawley rat at 30 mg/kg, po measured at Tmax; type: ADME, organism-based
Mus musculus [15] = assay: Anti-alzheimer activity against APP/PS1 dE9 double transgenic mouse model assessed as escape latency time at 10 mg/kg, po administered 3 times/week for 1 month and measured after 27 days of treatment by Passive avoidance test (reference value: 24.8 +/- 4.1 sec); type: functional; settings: time 1 months, 730 h
Cortical neurone [16] = assay: Neuroprotective activity against Amyloid beta (1 to 42)-induced toxicity in rat cortical neuron assessed as cell viability at 20 uM measured after 48 hrs by MTT assay; type: functional; settings: read-out: Activity
[17] = Tmax in Sprague-Dawley rat at 3 mg/kg, po measured upto 24 hrs by UPLC analysis; type: ADME, organism-based; settings: in vivo
Mus musculus [18] = assay: Anti-alzheimer activity against APP/PS1 dE9 double transgenic mouse model assessed as time spent in platform quadrant at 30 mg/kg, po administered 3 times/week for 1 month and measured after 40 to 45 days of treatment by Morris water maze test (reference value: 15.94 +/- 2.08 sec); type: functional; settings: time 1 months, 730 h
Mus musculus [19] = assay: Anti-alzheimer activity against homozygous 3 x Tg mouse model assessed as time spent in platform quadrant at 60 mg/kg, po administered daily for 2.2 months and measured after 68 to 73 days of treatment by Morris water maze test (reference value: 14.26 +/- 1.62 sec); type: functional; settings: 1606 h
[20] = Brain to Plasma ratio in Sprague-Dawley rat at 30 mg/kg, po measured at Tmax; type: ADME, organism-based; settings: read-out: BPR
Mus musculus [21] = assay: Anti-alzheimer activity against APP/PS1 dE9 double transgenic mouse model assessed as spontaneous alteration at 30 mg/kg, po administered 3 times/week for 1 month and measured after 27 days of treatment by Y-maze test (reference value: 45.51 +/- 2.92%); type: functional; settings: time 1 months, 730 h
[22] = Drug uptake in Sprague-Dawley rat brain at 30 mg/kg, po measured at Tmax; type: ADME, organism-based; settings: in vivo
[23] = Toxicity in APP/PS1 mouse assessed as weight change at 30 mg/kg, po treated for 2 months; type: organism-based; settings: in vivo, 1460 h
Mus musculus [24] = assay: Anti-alzheimer activity against APP/PS1 dE9 double transgenic mouse model assessed as escape latency time at 30 mg/kg, po administered 3 times/week for 1 month and measured after 27 days of treatment by Passive avoidance test (reference value: 24.8 +/- 4.1 sec); type: functional; settings: time 1 months, 730 h
Cortical neurone [25] = assay: Neuroprotective activity against Amyloid beta (1 to 42)-induced toxicity in rat cortical neuron assessed as cell viability at 20 uM measured after 24 hrs by MTT assay; type: functional; settings: read-out: Activity
[26] = Toxicity in APP/PS1 mouse assessed as abnormal symptoms at 60 mg/kg, po treated for 2 months; type: organism-based; settings: in vivo, 1460 h
[27] = Half life in Sprague-Dawley rat at 3 mg/kg, po measured upto 24 hrs by UPLC analysis; type: ADME, organism-based; settings: in vivo
[28] = Toxicity in homozygous 3 x Tg mouse model assessed as visual inspection at 60 mg/kg, po daily for 2.2 months; type: organism-based; settings: in vivo, 1606 h
[29] = Permeability of the compound by PAMPA-BBB assay; type: ADME; settings: read-out: permeability
[30] = Efflux ratio of apparent permeability basolateral to apical side over apical to basolateral side in human Caco-2 cells at 10 uM incubated for 1 hr by LC-MS/MS analysis; type: ADME, cell-based
[31] = Apparent permeability across basolateral to apical side in human Caco-2 cells at 10 uM incubated for 1 hr by LC-MS/MS analysis; type: ADME, cell-based
[32] = Cmax in Sprague-Dawley rat at 3 mg/kg, po measured upto 24 hrs by UPLC analysis; type: ADME, organism-based; parameters: dose 3 mg/kg, time < 24 hrs, route po; settings: in vivo
[33] = Oral bioavailability in Sprague-Dawley rat at 3 mg/kg measured upto 24 hrs by UPLC analysis; type: ADME, organism-based; settings: in vivo
[34] = Half life in Sprague-Dawley rat at 1 mg/kg, iv measured upto 24 hrs by UPLC analysis; type: ADME, organism-based; settings: in vivo
[35] = AUC in Sprague-Dawley rat at 1 mg/kg, iv measured upto 24 hrs by UPLC analysis; type: ADME, organism-based; parameters: dose 1 mg/kg, time < 24 hrs, route iv; settings: in vivo

T1 sequence (P45983 whole entry): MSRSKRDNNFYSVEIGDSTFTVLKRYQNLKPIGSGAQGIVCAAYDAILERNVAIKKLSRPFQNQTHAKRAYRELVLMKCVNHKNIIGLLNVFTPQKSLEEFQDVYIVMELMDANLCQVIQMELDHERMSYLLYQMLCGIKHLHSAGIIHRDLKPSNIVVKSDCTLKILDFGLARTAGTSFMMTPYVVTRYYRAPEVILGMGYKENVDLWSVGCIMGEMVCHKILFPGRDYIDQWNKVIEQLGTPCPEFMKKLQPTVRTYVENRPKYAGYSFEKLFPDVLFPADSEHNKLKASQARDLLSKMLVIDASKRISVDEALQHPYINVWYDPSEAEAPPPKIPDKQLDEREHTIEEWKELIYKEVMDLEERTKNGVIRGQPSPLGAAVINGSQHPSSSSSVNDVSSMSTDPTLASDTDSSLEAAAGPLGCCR
Chain of Mitogen-activated protein kinase 10 (P53779 whole entry): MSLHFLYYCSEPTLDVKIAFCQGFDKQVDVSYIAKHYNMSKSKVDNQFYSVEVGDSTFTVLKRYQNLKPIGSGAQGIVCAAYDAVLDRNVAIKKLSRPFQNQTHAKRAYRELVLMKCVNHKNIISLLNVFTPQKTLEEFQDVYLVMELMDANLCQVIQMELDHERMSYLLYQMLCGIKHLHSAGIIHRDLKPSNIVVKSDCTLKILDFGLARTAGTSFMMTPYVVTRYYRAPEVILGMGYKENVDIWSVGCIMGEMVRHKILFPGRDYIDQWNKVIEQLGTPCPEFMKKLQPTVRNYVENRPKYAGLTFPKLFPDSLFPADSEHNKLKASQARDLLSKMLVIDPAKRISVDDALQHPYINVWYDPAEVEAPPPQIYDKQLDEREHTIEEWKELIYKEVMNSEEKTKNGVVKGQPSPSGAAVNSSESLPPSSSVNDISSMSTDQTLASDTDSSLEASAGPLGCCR

N#CCc1cnc(-c2ccc(F)c(C(F)(F)F)c2)n1-c1ccnc(NC2CCCCC2)n1
IC50 [1]: 10000 nM

CC(C)(C)C(=O)N1CCC[C@H](Nc2nccc(-n3c(CC#N)cnc3-c3ccc(Cl)c(Cl)c3)n2)C1
IC50 [1]: 8 nM | IC50 [2]: 444 nM | IC50 [3]: 81 nM

N#CCc1cnc(-c2ccc3ccccc3c2)n1-c1ccnc(N[C@H]2CCCCN(C(=O)C3CC3)C2)n1
IC50 [1]: 24.1 nM | IC50 [2]: 962 nM | IC50 [3]: 241 nM

C[C@@H](O)CNc1nccc(-n2c(CC#N)cnc2-c2ccc3ccccc3n2)n1
IC50 [1]: > 10000 nM

O=C1c2ccccc2C2=NNC3=CC=CC1C32 (stereo unspecified)
IC50 [4]: 40 nM | IC50 [5]: 40 nM

N#CCc1cnc(-c2ccc3ccccc3c2)n1-c1ccnc(Nc2cccc(C(=O)C3CC3)c2)n1
IC50 [1]: 7 nM | IC50 [2]: 1730 nM | IC50 [3]: 287 nM

N#CCc1cnc(-c2ccc3c(c2)OCO3)n1-c1ccnc(NC2CCCCC2)n1
IC50 [1]: 814 nM

N#CCc1cnc(-c2ccc(Cl)c(Cl)c2)n1-c1ccnc(N[C@H]2CCCNC2)n1
IC50 [1]: 13300 nM

N#CCc1cnc(C2=CC3OCOC3C=C2)n1-c1ccnc(N[C@H]2CCCN(C(=O)C3CC3)C2)n1 (stereo partly specified)
IC50 [1]: 55 nM

N#CCc1cnc(-c2ccc3c(c2)OCO3)n1-c1ccnc(NC2CCOCC2)n1
IC50 [1]: 8560 nM

N#CCc1cnc(C2=CC3OCCOC3C=C2)n1-c1ccnc(N[C@H]2CCCN(C(=O)C3CC3)C2)n1 (stereo partly specified)
IC50 [1]: 1520 nM

N#CCc1cnc(-c2ccc3ccccc3c2)n1-c1ccnc(NC2CCOCC2)n1
IC50 [1]: 321 nM

N#CCc1cnc(-c2ccc3ccccc3n2)n1-c1ccnc(N[C@H]2CCCNC2)n1
IC50 [1]: > 10000 nM

NC(=O)N1Cc2nc(-c3ccc(Cl)c(Cl)c3)n(-c3ccnc(N[C@@H]4CCN(C(=O)C5CC5)C4)n3)c2C1
IC50 [6]: > 3000 nM

C[C@@H](O)CNc1nccc(-n2c(CC#N)cnc2-c2ccc(Cl)c(Cl)c2)n1
IC50 [1]: 6760 nM

N#CCc1cnc(-c2ccc3c(c2)CCO3)n1-c1ccnc(N[C@H]2CCCN(C(=O)C3CC3)C2)n1
Activity [7]: Non-Toxic | Activity (Mus musculus [8]): 57.14% | Activity (Mus musculus [9]): 53.15% | Time (Mus musculus [10]): 21.55 s | Time (Mus musculus [11]): 71.1 s | Papp A→B at 1 h, 10 µM [12]: 11 ×10⁻⁶ cm/s | Activity [13]: Non-Toxic | Cmax [14]: 5910 ng/mL | Time (Mus musculus [15]): 34.7 s | IC50 [1]: 4.1 nM | viability at 20 µM (Cortical neurone [16]): 46.3% | Tmax [17]: 40.2 min | Time (Mus musculus [18]): 22.5 s | Time (Mus musculus [19]): 21.91 s | Kp [20]: 0.06 | Activity (Mus musculus [21]): 54.99% | Drug uptake [22]: 357 ng/g | Activity [23]: Non-Toxic | Time (Mus musculus [24]): 40.1 s | viability at 20 µM (Cortical neurone [25]): 73.3% | Activity [26]: Non-Toxic | half-life [27]: 68.4 min | Activity [28]: Non-Toxic | Papp [29]: 8.91 ×10⁻⁶ cm/s | efflux ratio at 1 h, 10 µM [30]: 2.86 | IC50 [2]: 148 nM | IC50 [3]: 44 nM | Papp B→A at 1 h, 10 µM [31]: 31.3 ×10⁻⁶ cm/s | Cmax [32]: 1240 ng/mL | bioavailability [33]: 86.2% | half-life [34]: 21.6 min | AUC at 24 h [35]: 1090 ng·h/mL

C[C@@H](O)CNc1nccc(-n2c(CC#N)cnc2-c2ccc(F)c(C(F)(F)F)c2)n1
IC50 [1]: > 10000 nM

C[C@@H](O)CNc1nccc(-n2c(CC#N)cnc2-c2ccc3c(c2)OCO3)n1
IC50 [1]: > 10000 nM

N#CCc1cnc(-c2ccc(F)c(C(F)(F)F)c2)n1-c1ccnc(NC2CCOCC2)n1
IC50 [1]: 421 nM

N#CCc1cnc(-c2ccc3c(c2)OCCO3)n1-c1ccnc(NC2CCOCC2)n1
IC50 [1]: > 10000 nM

N#CCc1cnc(-c2ccc3occc3c2)n1-c1ccnc(N[C@H]2CCCN(C(=O)C3CC3)C2)n1
IC50 [1]: 6.2 nM | IC50 [2]: 359 nM | IC50 [3]: 268 nM

Reference: ChEMBL document CHEMBL5385844, “Discovery of novel imidazole chemotypes as isoform-selective JNK3 inhibitors for the treatment of Alzheimer's disease” (Eur J Med Chem, 2023)
